Laboratory results reported in patent US20140186364A1, “INHIBITION OF THE NT-3:TRKC BOUND AND ITS APPLICATION TO THE TREATMENT OF CANCER SUCH AS NEUROBLASTOMA” (CENTRE NATIONAL DE LA RECHERCHE SCIENTIFIQUE (CNRS), priority 2008, published 2014).
Residues, ends and D or L forms follow the SMILES beside them. *: point of attachment. Cbz = O=C(OCc1ccccc1)*; CH2F = FC*

Tests used:
TrkC [1] = assay: TrkC caspase cleavage in TrkC-expressing 13.S.24 cells (immunoblot); assay type: cell-based, rat; conditions: 13.S.24 cells expressing TrkC; C-terminal TrkC antibody
Method: (§1) To observe the cleavage of TrkC in 13.S.24, MG132 ([…], Z-Leu-Leu-Leuala, Sigma-Aldrich) was added to the culture medium 2 h before harvesting the cells. Cells were then potterised in the Wang buffer (20 mM Hepes KOH/10 mMKCl/1.5 mM MgC12/1 mM Sodium EDTA/1 mM Sodium EGTA/0.1 mM PMSF/1 mM DTT/[…]). Proteins were then analyzed by Western blot using the anti-TrkC antibody (sc-139; Santa Cruz Biotechnology). To monitor TrkC cleavage in vivo, E10.5 OF1 mouse embryos were dissected with a sharpened tungsten needle to isolate the spinal cord, the somites and DRG precursors which were then semidissociated in DMEM F-12 (Invitrogen). The samples were incubated overnight under agitation at 37° C. in the presence or absence of either NT-3 (PreproTech; 10 ng/ml), or BAF (Sigma-Aldrich; […]), or the NT-3 blocking antibody AF1404 (R&D, Minneapolis, Minn.; 1/100). The samples were then lysed directly in the Laemmli sample buffer and the proteins separated on 12% SDS/PAGE. The filter was probed with the anti-TrkC antibody.

rat TrkC = target: T1, rat TrkC (Rattus norvegicus, UniProt Q03351); assay: TrkC-induced apoptosis in TrkC-transfected HEK293T or 13.S.24 cells (trypan blue, caspase activity, DNA condensation); assay type: cell-based; conditions: for TrkC-induced apoptosis: general caspase inhibitors added after TrkC transfection
T1 construct: We first transiently expressed full-length rat TrkC in HEK293T cells; HA; expressed in transfected cells; host or cells: HEK293T or 13.S.24 olfactory neuroblasts
Method: (§2) Transient transfections of Human Embryonic Kidney 293T and olfactory neuroblasts 13.S.24 cells were performed as previously described (4), by using Lipofectamine Plus (Invitrogen, Carlsbad, Calif.) according to the manufacturer's instructions. HEK293T and 13.S.24 cells where cultured in DMEM (Invitrogen) with the addition of 0.1% gentamycin for 13.S.24 cells. The recombinant human NT-3 was purchased from PreproTech (Rocky Hill, N.J.) and added to the culture medium 3 and 24 h after transfection. TrkC expression was monitored by Western blot with an anti-C-terminal antibody purchased from Santa Cruz Biotechnology (sc-139; Santa Cruz, Calif.), 24 h after transfection. Plasma membrane localisation of Trk receptors was performed by FACS analysis. Briefly, […] cells were transfected and labeled successively with anti-HA antibody (1/100; Sigma, St. Louis, Mo.) and anti-rabbit PE (1/100; Jackson ImmunoResearch Laboratories, West Grove, Pa.). Detection was done using a FACSCalibur (BD Biosciences, San Jose, Calif.).
Cell death was analyzed using trypan blue staining procedures, as previously described (6). Either the z-VAD-fmk (TEBU-bio, Le Perray en Yvelines Cedex, France; […]) or the BAF [Boc-Asp(Ome) Fluoromethyl Ketone; Sigma-Aldrich; […]] caspase inhibitors were added to the culture medium just after transfection. The extent of cell death is presented as the percentage of trypan blue-positive cells in the different transfected cell populations. Relative caspase activity was determined by fluorescence measurement of DEVDAFC cleavage, as described in (8). Immunostaining using anti-caspase-3 antibody (Cell Signaling) was described in (4). […] For flow cytometric analysis, stained cells were counted using a FACSCalibur (BD Biosciences) and CellQuest analysis software with excitation and emission settings of 488 nm and 525-550 nm (filter FL1), respectively.

TrkC [2] = target: T2, TrkC (Mus musculus, UniProt Q6VNS1); assay: TrkC cleavage in semidissociated embryonic mouse DRG (Western blot); assay type: cell-based; conditions: DRG maintained overnight; NT-3 10 ng/ml
T2 construct: embryonic mouse dorsal root ganglion (DRG) were semidissociated and maintained overnight; from tissue; host or cells: spinal cord, somites and DRG precursors of E10.5 OF1 mouse embryos, semidissociated
Method: as §1

TrkC [3] = target: T3, TrkC (Homo sapiens, UniProt Q16288); assay: Endogenous TrkC cleavage in CLB-Ge2 cells (western blot); assay type: cell-based; parameters: endogenous in cells; host or cells: CLB-Ge2 human neuroblastoma cells
Method: 8×10^4 cells were cytospun on coverslips and fixed in 4% PFA. The slides were then incubated at room temperature for one hour with an antibody recognizing human NT-3 (1/300, SC-547). After rinsing in Phosphate Buffer Saline, the slides were incubated with an Alexa-488-Donkey anti-Rabbit antibody (Molecular Probes). Nucleus were visualized with Hoechst staining (Sigma). Expression of TrkC constructs and endogenous TrkC cleavage were monitored by western blot with anti-Trk antibody (sc-11; Santa Cruz Biotechnology) and an anti […]-actin (13E5; Cell Signaling) was used as loading control as previously described (36).

TrkC [4] = target: T3, TrkC; assay: Human TrkC-induced cell death in transfected 13.S.24 cells (active caspase-3); assay type: cell-based; parameters: expressed in transfected cells; host or cells: 13.S.24 olfactory neuroblasts; conditions: NT-3 10 ng/ml
Method: as §2, with “Detection was done using a FACSCalibur (BD Biosciences, San Jose, Calif.).” left out
Cell death was analyzed using trypan blue staining procedures, as previously described (6). […] Relative caspase activity was determined by fluorescence measurement of DEVDAFC cleavage, as described in (8). […] For flow cytometric analysis, stained cells were counted using a FACSCalibur (BD Biosciences) and CellQuest analysis software with excitation and emission settings of 488 nm and 525-550 nm (filter FL1), respectively.

T1 sequence (Q03351 32-825 isoform Q03351-2 limits assumed): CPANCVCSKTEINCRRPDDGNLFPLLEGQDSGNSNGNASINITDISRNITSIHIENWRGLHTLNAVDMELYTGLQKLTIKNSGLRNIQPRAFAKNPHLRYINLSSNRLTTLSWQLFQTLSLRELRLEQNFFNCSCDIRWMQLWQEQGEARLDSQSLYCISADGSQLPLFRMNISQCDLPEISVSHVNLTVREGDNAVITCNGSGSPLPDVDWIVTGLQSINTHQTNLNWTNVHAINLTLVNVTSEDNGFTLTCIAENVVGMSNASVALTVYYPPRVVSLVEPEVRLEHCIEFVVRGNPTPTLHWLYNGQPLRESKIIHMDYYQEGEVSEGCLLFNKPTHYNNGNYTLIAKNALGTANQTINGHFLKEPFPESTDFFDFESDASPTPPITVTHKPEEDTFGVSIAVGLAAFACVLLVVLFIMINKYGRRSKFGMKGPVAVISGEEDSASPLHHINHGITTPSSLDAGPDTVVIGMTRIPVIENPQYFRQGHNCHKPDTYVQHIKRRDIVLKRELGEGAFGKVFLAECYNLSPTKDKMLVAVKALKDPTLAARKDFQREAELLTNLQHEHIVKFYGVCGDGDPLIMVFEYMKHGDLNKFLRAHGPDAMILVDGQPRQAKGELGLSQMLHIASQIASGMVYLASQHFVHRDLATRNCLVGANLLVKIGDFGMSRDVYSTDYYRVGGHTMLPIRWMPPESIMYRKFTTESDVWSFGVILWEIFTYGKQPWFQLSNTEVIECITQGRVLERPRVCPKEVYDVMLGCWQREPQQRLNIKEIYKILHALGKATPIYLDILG
T3 sequence (Q16288 32-839): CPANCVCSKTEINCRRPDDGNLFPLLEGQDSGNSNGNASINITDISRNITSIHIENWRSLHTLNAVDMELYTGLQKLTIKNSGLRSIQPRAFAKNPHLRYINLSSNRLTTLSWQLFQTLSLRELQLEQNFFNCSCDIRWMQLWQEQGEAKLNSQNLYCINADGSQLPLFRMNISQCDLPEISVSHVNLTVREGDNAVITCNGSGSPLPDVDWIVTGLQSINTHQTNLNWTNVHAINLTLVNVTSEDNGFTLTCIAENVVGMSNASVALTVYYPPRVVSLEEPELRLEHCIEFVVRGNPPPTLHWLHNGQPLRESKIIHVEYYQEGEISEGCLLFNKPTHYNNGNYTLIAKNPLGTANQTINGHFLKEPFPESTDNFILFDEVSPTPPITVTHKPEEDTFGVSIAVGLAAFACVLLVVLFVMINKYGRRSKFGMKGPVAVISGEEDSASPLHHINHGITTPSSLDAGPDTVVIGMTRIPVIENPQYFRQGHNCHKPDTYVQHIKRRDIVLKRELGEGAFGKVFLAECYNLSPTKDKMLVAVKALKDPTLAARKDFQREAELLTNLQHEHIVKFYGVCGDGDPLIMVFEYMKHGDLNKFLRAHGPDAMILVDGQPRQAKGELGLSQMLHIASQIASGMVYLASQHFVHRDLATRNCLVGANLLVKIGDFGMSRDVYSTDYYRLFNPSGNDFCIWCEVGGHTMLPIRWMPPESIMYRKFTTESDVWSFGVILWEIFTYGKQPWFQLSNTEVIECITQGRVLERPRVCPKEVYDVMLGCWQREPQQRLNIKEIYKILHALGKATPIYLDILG
T2 sequence (Q6VNS1 32-825): as the sequence (Q03351 32-825 isoform Q03351-2 limits assumed) above

Row | TrkC caspase cleavage (20 kDa band) (TrkC [3]) | Molecule | TrkC cleavage bands (35 and 20 kDa) (TrkC [1]) | TrkC-induced apoptosis (rat TrkC) | 20-kDa TrkC fragment (TrkC [2]) | human TrkC-triggered cell death (TrkC [4]) | TrkC-mediated cell death (trypan blue exclusion, caspase activity, DNA condensation) (rat TrkC; rat TrkC-transfected 13.S.24 cells, NT-3 0.5-50 ng/ml)
1 | blocked | COC(=O)CC(NC(=O)OC(C)(C)C)C(=O)CF (stereo not shown) [BAF, boc-aspartyl(OMe)-fluoromethylketone] | failed to be detected | fully inhibit TrkC-induced apoptosis | disappeared | – | –
2 | – | COC(=O)CC[C@H](NC(=O)[C@H](CC(=O)OC)NC(=O)OCc1ccccc1)C(=O)N[C@H](C(=O)N[C@@H](CC(=O)OC)C(=O)CF)C(C)C [DEVD-fmk] | fail to block caspase-dependent cleavage of TrkC | – | – | – | –
3 | – | COC(=O)C[C@H](NC(=O)[C@H](C)NC(=O)[C@@H](NC(=O)OCc1ccccc1)C(C)C)C(=O)CF [zVAD-fmk] (Cbz-Val-Ala-Asp(OMe)-CH2F) | failed to be detected | fully inhibit TrkC-induced apoptosis | – | – | –
4 | – | NT-3: recombinant human NT-3 purchased from PreproTech; ligand of TrkC | – | – | disappeared | triggers cell death unless NT-3 is present | inhibited, in a dose-dependent manner
